Reference: patent publication US20240228535A1 (priority 2022, published 2024)

biological target: SARS2 coronavirus 3CL protease (Severe acute respiratory syndrome coronavirus 2, UniProt P0DTD1); experiment: biochemical; details: 5 nM enzyme, 30 min pre-incubation with compound, 15 μM peptide substrate, 4 h at room temperature; read-out: FRET Potency (nM); IC50 values in the SARS2 3CLPro FRET assay

Structure (SMILES)	IC50 [nM]
[2H]C([2H])([2H])OC(=O)Nc1ccc(Cl)cc1C(=O)N[C@@H](C[C@@H]1CCNC1=O)C(=O)C(=O)NC [Example 108, trideuteriomethyl N-[4-chloro-2-[[(1S)-3-(methylamino)-2,3-dioxo-1-[[(3S)-2-oxopyrrolidin-3-yl]methyl]propyl]carbamoyl]phenyl]carbamate]	4.8
CNC(=O)C(=O)[C@H](C[C@@H]1CCNC1=O)NC(=O)c1cc(F)c(F)cc1NC(=O)OC [Example 109, methyl N-[4,5-difluoro-2-[[(1S)-3-(methylamino)-2,3-dioxo-1-[[(3S)-2-oxopyrrolidin-3-yl]methyl]propyl]carbamoyl]phenyl]carbamate]	6
CNC(=O)C(=O)[C@H](C[C@@H]1CCNC1=O)NC(=O)c1cc(Cl)ccc1NC(=O)C1CC1 [Example 110, 5-chloro-2-(cyclopropanecarbonylamino)-N-[(1S)-3-(methylamino)-2,3-dioxo-1-[[(3S)-2-oxopyrrolidin-3-yl]methyl]propyl]benzamide]	3.1
CCOC(=O)Nc1ccc(Cl)cc1C(=O)N[C@@H](C[C@@H]1CCNC1=O)C(=O)C(=O)NC [Example 111, ethyl N-[4-chloro-2-[[(1S)-3-(methylamino)-2,3-dioxo-1-[[(3S)-2-oxopyrrolidin-3-yl]methyl]propyl]carbamoyl]phenyl]carbamate]	5.8
[2H]C([2H])([2H])OC(=O)Nc1ccc(Cl)cc1C(=O)N[C@@H](C[C@@H]1C[C@@H](C)NC1=O)C(=O)C(=O)NC [Example 112, trideuteriomethyl N-[4-chloro-2-[[(1S)-3-(methylamino)-1-[[(3S,5R)-5-methyl-2-oxo-pyrrolidin-3-yl]methyl]-2,3-dioxo-propyl]carbamoyl]phenyl] carbamate]	6
CNC(=O)C(=O)[C@H](C[C@@H]1C[C@@H](C)NC1=O)NC(=O)c1nc(Cl)ccc1NC(=O)OC [Example 113]	1290
C[C@@H]1C[C@@H](C[C@H](NC(=O)c2cc(Cl)ccc2NC(=O)CCC(F)(F)F)C(=O)C(=O)NCc2ccncc2)C(=O)N1 [Example 114, 5-chloro-N-[(1S)-1-[[(3S,5R)-5-methyl-2-oxo-pyrrolidin-3-yl]methyl]-2,3-dioxo-3-(4-pyridylmethylamino)propyl]-2-(4,4,4-trifluorobutanoylamino) benzamide]	18.9
C[C@@H]1C[C@@H](C[C@H](NC(=O)c2cc(Cl)ccc2NC(=O)CCC(F)(F)F)C(=O)C(=O)NCc2ccccc2)C(=O)N1 [Example 115, N—((S)-4-(benzylamino)-1-((3S,5R)-5-methyl-2-oxopyrrolidin-3-yl)-3,4-dioxobutan-2-yl)-5-chloro-2-(4,4,4-trifluorobutanamido)benzamide]	11.5
C[C@@H]1C[C@@H](C[C@H](NC(=O)c2cc(Cl)ccc2NC(=O)CCC(F)(F)F)C(=O)C(=O)NCc2nc[nH]n2)C(=O)N1 [Example 116, 5-chloro-N-[(1S)-1-[[(3S,5R)-5-methyl-2-oxo-pyrrolidin-3-yl]methyl]-2,3-dioxo-3-(1H-1,2,4-triazol-3-ylmethylamino)propyl]-2-(4,4,4-trifluorobutanoylamino) benzamide]	20.9
C[C@@H]1C[C@@H](C[C@H](NC(=O)c2cc(Cl)ccc2NC(=O)CCC(F)(F)F)C(=O)C(=O)NCCO)C(=O)N1 [Example 117, 5-chloro-N-[(1S)-3-(2-hydroxyethylamino)-1-[[(3S,5R)-5-methyl-2-oxo-pyrrolidin-3-yl]methyl]-2,3-dioxo-propyl]-2-(4,4,4-trifluorobutanoylamino) benzamide]	9.3
CNC(=O)C(=O)[C@H](C[C@@H]1C[C@@H](C)NC1=O)NC(=O)c1cc(Cl)ncc1NC(=O)OC [Example 118]	23.9
CNC(=O)C(=O)[C@H](C[C@@H]1C[C@@H](C)NC1=O)NC(=O)c1cc(Cl)cnc1NC(=O)OC [Example 119, methyl N-[5-chloro-3-[[(1S)-3-(methylamino)-1-[[(3S,5R)-5-methyl-2-oxo-pyrrolidin-3-yl]methyl]-2,3-dioxo-propyl]carbamoyl]-2-pyridyl]carbamate]	5.6
